Results published in PubChem BioAssay AID1963851 (Molecular Pharmacology Branch, DTP, NCI, 2024).

Test system: 188146-221-R-J1-PDC complex spheroid viability
Experiment: Anticancer human tumor 188146-221-R-J1-PDC patient-derived colon adenocarcinoma cell line growth inhibition [POLQ]
Conditions: for IC50: curve of first compound; for viability, T/C: stronger effect = lower value
Summary of the method: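 Three-cell-type spheroids modelling solid tumor plus stroma served as the readout system; POL inhibitors were tested individually and in combination, concentration ranges set by clinical Cmax where known.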

[1] = second compound 0.0316 µM, first compound 0.0316 µM
[2] = second compound 0.0316 µM, first compound 0.1 µM
[3] = second compound 0.0316 µM, first compound 0.316 µM
[4] = second compound 0.0316 µM, first compound 1 µM
[5] = second compound 0.0316 µM, first compound 3.16 µM
[6] = second compound 0.0316 µM, first compound 10 µM
[7] = second compound 0.1 µM, first compound 0.0316 µM
[8] = second compound 0.1 µM, first compound 0.1 µM
[9] = second compound 0.1 µM, first compound 0.316 µM
[10] = second compound 0.1 µM, first compound 1 µM
[11] = second compound 0.1 µM, first compound 3.16 µM
[12] = second compound 0.1 µM, first compound 10 µM
[13] = second compound 0.316 µM, first compound 0.0316 µM
[14] = second compound 0.316 µM, first compound 0.1 µM
[15] = second compound 0.316 µM, first compound 0.316 µM
[16] = second compound 0.316 µM, first compound 1 µM
[17] = second compound 0.316 µM, first compound 3.16 µM
[18] = second compound 0.316 µM, first compound 10 µM
[19] = second compound 1 µM, first compound 0.0316 µM
[20] = second compound 1 µM, first compound 0.1 µM
[21] = second compound 1 µM, first compound 0.316 µM
[22] = second compound 1 µM, first compound 1 µM
[23] = second compound 1 µM, first compound 3.16 µM
[24] = second compound 1 µM, first compound 10 µM
[25] = second compound 3.16 µM, first compound 0.0316 µM
[26] = second compound 3.16 µM, first compound 0.1 µM
[27] = second compound 3.16 µM, first compound 0.316 µM
[28] = second compound 3.16 µM, first compound 1 µM
[29] = second compound 3.16 µM, first compound 3.16 µM
[30] = second compound 3.16 µM, first compound 10 µM
[31] = second compound 10 µM, first compound 0.0316 µM
[32] = second compound 10 µM, first compound 0.1 µM
[33] = second compound 10 µM, first compound 0.316 µM
[34] = second compound 10 µM, first compound 1 µM
[35] = second compound 10 µM, first compound 3.16 µM
[36] = second compound 10 µM, first compound 10 µM
[37] = second compound 0.0316 µM, first compound 0.00316 µM
[38] = second compound 0.0316 µM, first compound 0.01 µM
[39] = second compound 0.1 µM, first compound 0.00316 µM
[40] = second compound 0.1 µM, first compound 0.01 µM
[41] = second compound 0.316 µM, first compound 0.00316 µM
[42] = second compound 0.316 µM, first compound 0.01 µM
[43] = second compound 1 µM, first compound 0.00316 µM
[44] = second compound 1 µM, first compound 0.01 µM
[45] = second compound 3.16 µM, first compound 0.00316 µM
[46] = second compound 3.16 µM, first compound 0.01 µM
[47] = second compound 10 µM, first compound 0.00316 µM
[48] = second compound 10 µM, first compound 0.01 µM
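Also: spheroids exposed to compounds for seven days.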
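For viability, T/C in this document: 100% = DMSO vehicle control viability.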

`CNCc1ccc(-c2[nH]c3cc(F)cc4c3c2CCNC4=O)cc1` + Nc1ccc(C#CCN(C(=O)Cc2ncc(C(F)(F)F)cc2C(F)(F)F)c2ccc(F)cc2)nn1 gave an IC50 (second compound 0.0316 µM) greater than 10000 nM, an IC50 (second compound 0.1 µM) greater than 10000 nM and an IC50 (second compound 0.316 µM) greater than 10000 nM. The IC50 (second compound 1 µM) was greater than 10000 nM, the IC50 (second compound 3.16 µM) was greater than 10000 nM and the IC50 (second compound 10 µM) was greater than 10000 nM. For the same molecule, the viability, T/C [1] was 114%, the viability, T/C [2] was 107% and the viability, T/C [3] was 109%. The viability, T/C [4] was 106%, the viability, T/C [5] was 103% and the viability, T/C [6] was 120%. The viability, T/C [7] was 111%, the viability, T/C [8] was 104% and the viability, T/C [9] was 100%. The viability, T/C [10] was 113%, the viability, T/C [11] was 108% and the viability, T/C [12] was 116%. For the same molecule, the viability, T/C [13] was 114%, the viability, T/C [14] was 100% and the viability, T/C [15] was 85.3%. It also gave a viability, T/C [16] of 110%, a viability, T/C [17] of 123% and a viability, T/C [18] of 119%. The viability, T/C [19] was 106%, the viability, T/C [20] was 99.2% and the viability, T/C [21] was 93.5%. For the same molecule, the viability, T/C [22] was 111%, the viability, T/C [23] was 104% and the viability, T/C [24] was 100%. It also gave a viability, T/C [25] of 102%, a viability, T/C [26] of 94.7% and a viability, T/C [27] of 99.5%. The viability, T/C [28] was 109%, the viability, T/C [29] was 110% and the viability, T/C [30] was 103%. The viability, T/C [31] was 114%, the viability, T/C [32] was 115% and the viability, T/C [33] was 112%. For the same molecule, the viability, T/C [34] was 108%, the viability, T/C [35] was 120% and the viability, T/C [36] was 130%.

Work on `COc1cccc(OCCCN)c1-c1cc(Nc2cnc(C#N)cn2)n[nH]1` + Nc1ccc(C#CCN(C(=O)Cc2ncc(C(F)(F)F)cc2C(F)(F)F)c2ccc(F)cc2)nn1 yielded an IC50 (second compound 0.0316 µM) of 64.2 nM, an IC50 (second compound 0.1 µM) of 57.3 nM and an IC50 (second compound 0.316 µM) of 47.7 nM. For the same molecule, the IC50 (second compound 1 µM) was 29.9 nM, the IC50 (second compound 3.16 µM) was 37.5 nM and the IC50 (second compound 10 µM) was 28.6 nM. For the same molecule, the viability, T/C [37] was 94.9%, the viability, T/C [38] was 96% and the viability, T/C [1] was 77.4%. It also gave a viability, T/C [2] of 32.7%, a viability, T/C [3] of 16.2% and a viability, T/C [4] of 13.6%. It also gave a viability, T/C [39] of 104%, a viability, T/C [40] of 109% and a viability, T/C [7] of 66.6%. It also gave a viability, T/C [8] of 34.3%, a viability, T/C [9] of 17.3% and a viability, T/C [10] of 14%. The viability, T/C [41] was 106%, the viability, T/C [42] was 99.1% and the viability, T/C [13] was 59.1%. For the same molecule, the viability, T/C [14] was 30.9%, the viability, T/C [15] was 16.9% and the viability, T/C [16] was 12.2%. It also gave a viability, T/C [43] of 108%, a viability, T/C [44] of 111% and a viability, T/C [19] of 46.8%. For the same molecule, the viability, T/C [20] was 28.2%, the viability, T/C [21] was 15.6% and the viability, T/C [22] was 14%. It also gave a viability, T/C [45] of 91.5%, a viability, T/C [46] of 85.1% and a viability, T/C [25] of 54.3%. The viability, T/C [26] was 23.7%, the viability, T/C [27] was 15.6% and the viability, T/C [28] was 13.7%. It also gave a viability, T/C [47] of 119%, a viability, T/C [48] of 87.8% and a viability, T/C [31] of 47.6%. For the same molecule, the viability, T/C [32] was 21.7%, the viability, T/C [33] was 17% and the viability, T/C [34] was 15.4%.

Work on `Cn1ncnc1[C@H]1c2n[nH]c(=O)c3cc(F)cc(c23)N[C@@H]1c1ccc(F)cc1` + Nc1ccc(C#CCN(C(=O)Cc2ncc(C(F)(F)F)cc2C(F)(F)F)c2ccc(F)cc2)nn1 yielded an IC50 (second compound 0.0316 µM) greater than 100 nM, an IC50 (second compound 0.1 µM) greater than 100 nM and an IC50 (second compound 0.316 µM) greater than 100 nM. It also gave an IC50 (second compound 1 µM) greater than 100 nM, an IC50 (second compound 3.16 µM) greater than 100 nM and an IC50 (second compound 10 µM) greater than 100 nM. It also gave a viability, T/C (second compound 0.0316 µM, first compound 0.000316 µM) of 92%, a viability, T/C (second compound 0.0316 µM, first compound 0.001 µM) of 109% and a viability, T/C [37] of 98.2%. For the same molecule, the viability, T/C [38] was 116%, the viability, T/C [1] was 98.7% and the viability, T/C [2] was 93.2%. The viability, T/C (second compound 0.1 µM, first compound 0.000316 µM) was 111%, the viability, T/C (second compound 0.1 µM, first compound 0.001 µM) was 104% and the viability, T/C [39] was 108%. For the same molecule, the viability, T/C [40] was 102%, the viability, T/C [7] was 100% and the viability, T/C [8] was 96%. The viability, T/C (second compound 0.316 µM, first compound 0.000316 µM) was 102%, the viability, T/C (second compound 0.316 µM, first compound 0.001 µM) was 103% and the viability, T/C [41] was 96.7%. For the same molecule, the viability, T/C [42] was 93.8%, the viability, T/C [13] was 112% and the viability, T/C [14] was 98.9%. The viability, T/C (second compound 1 µM, first compound 0.000316 µM) was 100%, the viability, T/C (second compound 1 µM, first compound 0.001 µM) was 107% and the viability, T/C [43] was 109%. For the same molecule, the viability, T/C [44] was 94.5%, the viability, T/C [19] was 95.2% and the viability, T/C [20] was 97.2%. It also gave a viability, T/C (second compound 3.16 µM, first compound 0.000316 µM) of 106%, a viability, T/C (second compound 3.16 µM, first compound 0.001 µM) of 99.3% and a viability, T/C [45] of 95.9%. For the same molecule, the viability, T/C [46] was 91.7%, the viability, T/C [25] was 95.8% and the viability, T/C [26] was 93%. It also gave a viability, T/C (second compound 10 µM, first compound 0.000316 µM) of 108%, a viability, T/C (second compound 10 µM, first compound 0.001 µM) of 95.3% and a viability, T/C [47] of 116%. The viability, T/C [48] was 119%, the viability, T/C [31] was 109% and the viability, T/C [32] was 90.1%.

With `O=C(c1cc(Cc2n[nH]c(=O)c3ccccc23)ccc1F)N1CCN(C(=O)C2CC2)CC1` + Nc1ccc(C#CCN(C(=O)Cc2ncc(C(F)(F)F)cc2C(F)(F)F)c2ccc(F)cc2)nn1 the IC50 (second compound 0.0316 µM) was greater than 10000 nM, the IC50 (second compound 0.1 µM) was greater than 10000 nM and the IC50 (second compound 0.316 µM) was greater than 10000 nM. It also gave an IC50 (second compound 1 µM) greater than 10000 nM, an IC50 (second compound 3.16 µM) greater than 10000 nM and an IC50 (second compound 10 µM) greater than 10000 nM. It also gave a viability, T/C [1] of 99.7%, a viability, T/C [2] of 116% and a viability, T/C [3] of 104%. The viability, T/C [4] was 98.3%, the viability, T/C [5] was 93.6% and the viability, T/C [6] was 72.2%. For the same molecule, the viability, T/C [7] was 111%, the viability, T/C [8] was 100% and the viability, T/C [9] was 107%. It also gave a viability, T/C [10] of 90.7%, a viability, T/C [11] of 101% and a viability, T/C [12] of 75%. It also gave a viability, T/C [13] of 116%, a viability, T/C [14] of 88.5% and a viability, T/C [15] of 89.9%. For the same molecule, the viability, T/C [16] was 106%, the viability, T/C [17] was 80.9% and the viability, T/C [18] was 81.6%. It also gave a viability, T/C [19] of 117%, a viability, T/C [20] of 90.3% and a viability, T/C [21] of 94.3%. It also gave a viability, T/C [22] of 92.5%, a viability, T/C [23] of 96% and a viability, T/C [24] of 69.1%. For the same molecule, the viability, T/C [25] was 101%, the viability, T/C [26] was 104% and the viability, T/C [27] was 97%. It also gave a viability, T/C [28] of 102%, a viability, T/C [29] of 91.2% and a viability, T/C [30] of 77.1%. The viability, T/C [31] was 95.3%, the viability, T/C [32] was 95.3% and the viability, T/C [33] was 110%. It also gave a viability, T/C [34] of 89.8%, a viability, T/C [35] of 88.2% and a viability, T/C [36] of 73%.
